Measured values reported in ChEMBL document CHEMBL1201862, “PubChem BioAssay data set” (2004).
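A five-concentration, 48-hour dose response in 96-well plates underlies each endpoint, interpolated linearly between surrounding concentrations. Here, GI50 denotes the concentration required for 50% inhibition of growth.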 Calls of active or inactive are those of the source. No stated cut-off is given here; in the data, active = GI50 up to about 1.1 µM and inactive = higher.

What was measured:
Assay in all cases: growth of human tumour cells (NCI), 48 h
SK-MEL-2 = test system: SK-MEL-2
SW-620 = test system: SW-620
SF-295 = test system: SF-295
A549 = test system: A549
M14 = test system: M14
ACHN = test system: ACHN
SNB-75 = test system: SNB-75
HT-29 = test system: HT-29
MDA-MB-231 = test system: MDA-MB-231
RPMI-8226 = test system: RPMI-8226
UO-31 = test system: UO-31
SF-539 = test system: SF-539
SK-MEL-28 = test system: SK-MEL-28
KM12 = test system: KM12
DU-145 = test system: DU-145
OVCAR-4 = test system: OVCAR-4
HOP-62 = test system: HOP-62
SK-OV-3 = test system: SK-OV-3
K562 = test system: K562
CCRF-CEM = test system: CCRF-CEM

In the case of `N#Cc1c(NC(=O)CCC(=O)O)ccc2ccccc12`, the GI50 (SK-MEL-2) was > 100 µM (inactive), the GI50 (SW-620) was > 100 µM (inactive) and the GI50 (SF-295) was > 100 µM (inactive). The GI50 (A549) was > 100 µM (inactive), the GI50 (M14) was > 100 µM (inactive) and the GI50 (ACHN) was > 100 µM (inactive). The GI50 (SNB-75) was 64.1 µM (inactive), the GI50 (HT-29) was > 100 µM (inactive) and the GI50 (MDA-MB-231) was > 100 µM (inactive). The GI50 (RPMI-8226) was > 100 µM (inactive), the GI50 (UO-31) was > 100 µM (inactive) and the GI50 (SF-539) was > 100 µM (inactive). The GI50 (SK-MEL-28) was > 100 µM (inactive), the GI50 (KM12) was > 100 µM (inactive) and the GI50 (DU-145) was > 100 µM (inactive). The GI50 (OVCAR-4) was > 100 µM (inactive), the GI50 (HOP-62) was > 100 µM (inactive) and the GI50 (SK-OV-3) was > 100 µM (inactive). For the same molecule, the GI50 (K562) was > 100 µM (inactive).
For `CN1CCc2nc(N)nc(-c3nc(N)nc4c3CN(C)CC4)c2C1`, the GI50 (SK-MEL-2) was > 100 µM (inactive), the GI50 (SW-620) was > 100 µM (inactive) and the GI50 (SF-295) was > 100 µM (inactive). For the same molecule, the GI50 (A549) was > 100 µM (inactive), the GI50 (M14) was > 100 µM (inactive) and the GI50 (ACHN) was > 100 µM (inactive). For the same molecule, the GI50 (HT-29) was > 100 µM (inactive), the GI50 (MDA-MB-231) was > 100 µM (inactive) and the GI50 (RPMI-8226) was > 100 µM (inactive). For the same molecule, the GI50 (UO-31) was > 100 µM (inactive), the GI50 (SF-539) was > 100 µM (inactive) and the GI50 (SK-MEL-28) was > 100 µM (inactive). The GI50 (KM12) was > 100 µM (inactive), the GI50 (DU-145) was > 100 µM (inactive) and the GI50 (OVCAR-4) was > 100 µM (inactive). The GI50 (HOP-62) was > 100 µM (inactive), the GI50 (SK-OV-3) was > 100 µM (inactive) and the GI50 (K562) was 75.9 µM (inactive).
`CC(=O)OCc1cc(=O)n2c([nH]c3ccccc32)c1C#N` was tested, and the GI50 (SK-MEL-2) was 76.6 µM (inactive), the GI50 (CCRF-CEM) was 19.3 µM (inactive) and the GI50 (SW-620) was 96.6 µM (inactive). For the same molecule, the GI50 (SF-295) was 58.3 µM (inactive), the GI50 (A549) was 51.9 µM (inactive) and the GI50 (M14) was 61.8 µM (inactive). The GI50 (ACHN) was 52.4 µM (inactive), the GI50 (HT-29) was 79.4 µM (inactive) and the GI50 (MDA-MB-231) was 48.4 µM (inactive). The GI50 (UO-31) was 78.3 µM (inactive), the GI50 (SF-539) was > 100 µM (inactive) and the GI50 (SK-MEL-28) was 82.6 µM (inactive). For the same molecule, the GI50 (DU-145) was 68.7 µM (inactive), the GI50 (OVCAR-4) was 1.63 µM (inactive) and the GI50 (SK-OV-3) was 80.7 µM (inactive). For the same molecule, the GI50 (K562) was 65.9 µM (inactive).
In the case of `CC1=NN(c2cccc(Cl)c2)C2(C1=Cc1ccccc1)C(Cl)C(=O)N2c1nc2ccccc2s1` (stereo not drawn), the GI50 (SK-MEL-2) was 17 µM (inactive), the GI50 (CCRF-CEM) was 22.1 µM (inactive) and the GI50 (SW-620) was 19.8 µM (inactive). For the same molecule, the GI50 (SF-295) was 20.2 µM (inactive), the GI50 (M14) was 20.4 µM (inactive) and the GI50 (ACHN) was 16.7 µM (inactive). The GI50 (HT-29) was 19.8 µM (inactive), the GI50 (MDA-MB-231) was 18.4 µM (inactive) and the GI50 (RPMI-8226) was 21.9 µM (inactive). The GI50 (UO-31) was 16.3 µM (inactive), the GI50 (SF-539) was 33.2 µM (inactive) and the GI50 (SK-MEL-28) was 27.2 µM (inactive). The GI50 (KM12) was 17.3 µM (inactive), the GI50 (DU-145) was 15 µM (inactive) and the GI50 (OVCAR-4) was 19.1 µM (inactive). The GI50 (HOP-62) was 20.3 µM (inactive), the GI50 (SK-OV-3) was 20.9 µM (inactive) and the GI50 (K562) was 19.1 µM (inactive).
`O/N=C/[C@H]1COC2(CCCCC2)O1` was tested, and the GI50 (SK-MEL-2) was > 100 µM (inactive), the GI50 (CCRF-CEM) was > 100 µM (inactive) and the GI50 (SW-620) was > 100 µM (inactive). The GI50 (SF-295) was > 100 µM (inactive), the GI50 (A549) was > 100 µM (inactive) and the GI50 (M14) was > 100 µM (inactive). For the same molecule, the GI50 (ACHN) was > 100 µM (inactive), the GI50 (SNB-75) was > 100 µM (inactive) and the GI50 (HT-29) was > 100 µM (inactive). For the same molecule, the GI50 (MDA-MB-231) was > 100 µM (inactive), the GI50 (RPMI-8226) was > 100 µM (inactive) and the GI50 (UO-31) was > 100 µM (inactive). The GI50 (SK-MEL-28) was > 100 µM (inactive), the GI50 (KM12) was > 100 µM (inactive) and the GI50 (DU-145) was > 100 µM (inactive). The GI50 (OVCAR-4) was > 100 µM (inactive), the GI50 (HOP-62) was > 100 µM (inactive) and the GI50 (SK-OV-3) was > 100 µM (inactive). For the same molecule, the GI50 (K562) was > 100 µM (inactive).
`O=C1O[C@]2(c3ccccc3)C(c3ccccc3)=C[C@]2(C(=O)c2ccccc2)C1=O` was tested, and the GI50 (SK-MEL-2) was 27.2 µM (inactive), the GI50 (SW-620) was 19.1 µM (inactive) and the GI50 (SF-295) was 47 µM (inactive). For the same molecule, the GI50 (A549) was 37.2 µM (inactive), the GI50 (M14) was 32.3 µM (inactive) and the GI50 (ACHN) was 35.2 µM (inactive). The GI50 (SNB-75) was 3.92 µM (inactive), the GI50 (HT-29) was 55 µM (inactive) and the GI50 (MDA-MB-231) was 32.3 µM (inactive). For the same molecule, the GI50 (RPMI-8226) was 25.8 µM (inactive), the GI50 (UO-31) was 27.9 µM (inactive) and the GI50 (SF-539) was 23 µM (inactive). For the same molecule, the GI50 (SK-MEL-28) was 35.6 µM (inactive), the GI50 (KM12) was 35.8 µM (inactive) and the GI50 (DU-145) was 0.292 µM (active). The GI50 (OVCAR-4) was 39.1 µM (inactive), the GI50 (HOP-62) was 34 µM (inactive) and the GI50 (SK-OV-3) was 42.4 µM (inactive). For the same molecule, the GI50 (K562) was 23 µM (inactive).
With `COC(=O)N1CC(=O)C(C(=O)NC23CC4CC(CC(C4)C2)C3)C1` (stereo not drawn) the GI50 (SK-MEL-2) was 77.3 µM (inactive), the GI50 (CCRF-CEM) was 42.5 µM (inactive) and the GI50 (SW-620) was > 100 µM (inactive). For the same molecule, the GI50 (SF-295) was 56.6 µM (inactive), the GI50 (A549) was > 100 µM (inactive) and the GI50 (M14) was > 100 µM (inactive). The GI50 (ACHN) was 74.3 µM (inactive), the GI50 (HT-29) was 78.9 µM (inactive) and the GI50 (MDA-MB-231) was 42.7 µM (inactive). For the same molecule, the GI50 (RPMI-8226) was 32.8 µM (inactive), the GI50 (UO-31) was > 100 µM (inactive) and the GI50 (SF-539) was 72.9 µM (inactive). For the same molecule, the GI50 (SK-MEL-28) was 66.4 µM (inactive), the GI50 (KM12) was 41.8 µM (inactive) and the GI50 (DU-145) was 76.4 µM (inactive). For the same molecule, the GI50 (OVCAR-4) was > 100 µM (inactive) and the GI50 (K562) was 55.2 µM (inactive).
In the case of `Cn1c(COC(=O)NC2CCCCC2)c(COC(=O)NC2CCCCC2)c2ccc3cc(Cl)c(Cl)cc3c21`, the GI50 (SK-MEL-2) was 14.1 µM (inactive), the GI50 (CCRF-CEM) was 3.27 µM (inactive) and the GI50 (SW-620) was 6.79 µM (inactive). For the same molecule, the GI50 (SF-295) was 22.8 µM (inactive), the GI50 (A549) was 48.1 µM (inactive) and the GI50 (M14) was 16.5 µM (inactive). For the same molecule, the GI50 (ACHN) was 14.3 µM (inactive), the GI50 (SNB-75) was 8.39 µM (inactive) and the GI50 (HT-29) was 27.5 µM (inactive). For the same molecule, the GI50 (MDA-MB-231) was 10.2 µM (inactive), the GI50 (UO-31) was 28.4 µM (inactive) and the GI50 (SF-539) was 14.8 µM (inactive). For the same molecule, the GI50 (SK-MEL-28) was 12.5 µM (inactive), the GI50 (KM12) was 15.6 µM (inactive) and the GI50 (DU-145) was 28.6 µM (inactive). The GI50 (SK-OV-3) was 22 µM (inactive) and the GI50 (K562) was 3.61 µM (inactive).
